Where two headings read alike, the source gives them in different places.
Columns and labels:
histamine receptor H1 = histamine receptor H1 (Homo sapiens, UniProt P35367); assay: Histamine H1 radioligand binding ([3H]Pyrilamine); details: read-out: Histamine Binding (1 μM) H1, percent inhibition of specific binding, 1 μM
Experimental: To evaluate in radioligand binding assays the activity of compounds of the invention, human recombinant histamine H1 receptor expressed in Chinese hamster ovary (CHO) cells (De Backer, M. D. et al., Biochem. Biophys. Res. Comm. 197(3):1601, 1993) in a modified Tris-HCl buffer (50 mM Tris-HCl, pH 7.4, 2 mM MgCl2, 100 mM NaCl, 250 mM Sucrose) was used. Compounds of the invention were incubated with 1.2 nM [^3H]Pyrilamine for 180 min. at 25° C. Non-specific binding was estimated in the presence of 1 μM pyrilamine. Receptor proteins were filtered and washed, the filters were then counted to determine [^3H]Pyrilamine specifically bound. Compounds were screened at 1 μM or lower, using 1% DMSO as vehicle. Biochemical assay results are presented as the percent inhibition of specific binding in Table 8.

[1] = target: human dopamine D2L receptor (Homo sapiens, UniProt P14416); assay: Dopamine D2L radioligand binding ([3H]Spiperone); details: compound at 1 μM
human dopamine D2L receptor, sequence (P14416 whole entry): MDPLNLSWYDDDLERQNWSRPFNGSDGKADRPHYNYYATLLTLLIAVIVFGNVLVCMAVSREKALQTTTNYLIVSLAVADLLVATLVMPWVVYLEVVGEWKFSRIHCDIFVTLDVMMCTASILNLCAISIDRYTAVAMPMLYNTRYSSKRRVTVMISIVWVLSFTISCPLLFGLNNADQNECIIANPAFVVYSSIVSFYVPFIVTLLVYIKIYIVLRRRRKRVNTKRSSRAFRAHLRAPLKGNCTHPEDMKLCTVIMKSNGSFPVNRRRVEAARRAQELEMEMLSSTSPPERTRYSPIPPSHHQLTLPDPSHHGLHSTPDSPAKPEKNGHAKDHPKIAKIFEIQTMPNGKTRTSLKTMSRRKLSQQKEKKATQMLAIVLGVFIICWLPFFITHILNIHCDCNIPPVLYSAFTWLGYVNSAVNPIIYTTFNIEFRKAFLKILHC
Source text: Non-specific binding was estimated in the presence of […] Haloperidol. Receptor proteins were filtered and washed, the filters were then counted to determine [^3H]Spiperone specifically bound. […] Biochemical assay results are presented as the percent inhibition of specific binding in Table 9.

[2] = […] [3H]Spiperone, read-out: Inhibition of ligand binding, Dopamine D2L (percent inhibition of specific binding)
[3] = percent inhibition of specific binding, read-out: Inhibition of ligand binding, Dopamine D2L

histamine receptor H1, sequence (P35367 whole entry): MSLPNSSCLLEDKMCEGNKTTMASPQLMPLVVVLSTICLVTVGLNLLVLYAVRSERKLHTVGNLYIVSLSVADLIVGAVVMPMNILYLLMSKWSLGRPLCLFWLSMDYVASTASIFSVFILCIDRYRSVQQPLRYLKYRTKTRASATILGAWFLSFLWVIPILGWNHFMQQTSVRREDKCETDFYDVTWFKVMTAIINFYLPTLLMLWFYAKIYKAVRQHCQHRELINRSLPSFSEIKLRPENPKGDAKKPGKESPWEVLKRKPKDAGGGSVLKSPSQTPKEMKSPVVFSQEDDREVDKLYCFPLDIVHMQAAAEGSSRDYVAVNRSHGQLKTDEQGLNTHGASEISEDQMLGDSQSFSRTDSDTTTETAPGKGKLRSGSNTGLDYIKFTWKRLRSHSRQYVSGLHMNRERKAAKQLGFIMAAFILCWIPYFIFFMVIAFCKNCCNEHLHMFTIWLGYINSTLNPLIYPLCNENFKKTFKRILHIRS

Structure (SMILES) | inhibition at 1 µM (histamine receptor H1) [%] | inhibition at 1 µM [1, 2] [%] | inhibition at 1 µM [1, 3] [%]
C/C(=C/n1c2c(c3cc(Cl)ccc31)CN(C)CC2)C1CCCCC1 [Compound 369, (Z)-8-chloro-5-(2-cyclohexylprop-1-enyl)-2-methyl-2,3,4,5-tetrahydro-1H-pyrido[4,3-b]indole] | 29 | 64 | 
Cc1ccc2c(c1)c1c(n2C#Cc2ccc(C3CC3)nc2)CCN(C)C1 [Compound No. 496, 5-((6-cyclopropylpyridin-3-yl)ethynyl)-2,8-dimethyl-2,3,4,5-tetrahydro-1H-pyrido[4,3-b]indole] | 15 | 25 | 
C/C(=C\n1c2c(c3cc(NCCO)ccc31)CN(C)CC2)c1ccncc1 [compound 449, (E)-2-(2-methyl-5-(2-(pyridin-4-yl)prop-1-enyl)-2,3,4,5-tetrahydro-1H-pyrido[4,3-b]indol-8-ylamino)ethanol] | -7 | 59 | 
Cc1ccc2c(c1)c1c(n2C#Cc2cccc(N(C)C)c2)CCN(C)C1 [Compound No. 489, 3-((2,8-dimethyl-3,4-dihydro-1H-pyrido[4,3-b]indol-5(2H)-vyl)ethynyl)-N,N-dimethylaniline] | 13 | 9 | 
Cc1ccc2c(c1)c1c(n2C#Cc2cncn2C)CCN(C)C1 [Compound No. 497, 2,8-dimethyl-5-((1-methyl-1H-imidazol-5-yl)ethynyl)-2,3,4,5-tetrahydro-1H-pyrido[4,3-b]indole] | 17 | 14 | 
C=CCN1CCc2c(c3cc(C)ccc3n2/C=C(\C)c2ccncc2)C1 [compound 405, (E)-2-allyl-8-methyl-5-(2-(pyridin-4-yl)prop-1-enyl)-2,3,4,5-tetrahydro-1H-pyrido[4,3-b]indole] | 67 | 88 | 
CC(=O)N(C)c1ccc2c(c1)c1c(n2/C=C(\C)c2ccncc2)CCN(C)C1 [compound 439, (E)-N-methyl-N-(2-methyl-5-(2-(pyridin-4-yl)prop-1-enyl)-2,3,4,5-tetrahydro-1H-pyrido[4,3-b]indol-8-yl)acetamide] | 9 | 16 | 
Cc1ccc2c(c1)c1c(n2C#Cc2ccncc2)CCN(C)C1 [Compound No. 495, 2,8-dimethyl-5-(pyridin-4-ylethynyl)-2,3,4,5-tetrahydro-1H-pyrido[4,3-b]indole] | 52 | 58 | 
C/C(=C\n1c2c(c3cc(NC4CCC4)ccc31)CN(C)CC2)c1ccncc1 [compound 448, (E)-N-cyclobutyl-2-methyl-5-(2-(pyridin-4-yl)prop-1-enyl)-2,3,4,5-tetrahydro-1H-pyrido[4,3-b]indol-8-amine] | -10 | 79 | 
C=CCN1CCc2c(c3cc(Cl)ccc3n2/C=C(\C)c2ccncc2)C1 [compound 406, (E)-2-allyl-8-chloro-5-(2-(pyridin-4-yl)prop-1-enyl)-2,3,4,5-tetrahydro-1H-pyrido[4,3-b]indole] | 74 | 96 | 
C/C(=C(/C)n1c2c(c3cc(C)ccc31)CN(C)CC2)c1ccncc1 [compound 403, (E)-2,8-dimethyl-5-(3-(pyridin-4-yl)but-2-en-2-yl)-2,3,4,5-tetrahydro-1H-pyrido[4,3-b]indole] | 37 | 66 | 
CC(C)=C(Cn1c2c(c3cc(Cl)ccc31)CN(C)CC2)c1ccncc1 [Compound No. 357, 8-chloro-2-methyl-5-(3-methyl-2-(pyridin-4-yl)but-2-enyl)-2,3,4,5-tetrahydro-1H-pyrido[4,3-b]indole] | 61 | 14 | 
COc1ccc(/C(F)=C(/c2ccc(OC)nc2)n2c3c(c4cc(C)ccc42)CN(C)CC3)cn1 [compound 420, (E)-5-(2-fluoro-1,2-bis(6-methoxypyridin-3-yl)vinyl)-2,8-dimethyl-2,3,4,5-tetrahydro-1H-pyrido[4,3-b]indole] | 13 | 29 | 
C/C(=C\n1c2c(c3cc(Cl)ccc31)CN(C)CC2)c1ccsc1 [compound 388, (E)-8-chloro-2-methyl-5-(2-(thiophen-3-yl)prop-1-enyl)-2,3,4,5-tetrahydro-1H-pyrido[4,3-b]indole] | 100 | 99 | 
CC(O)(Cn1c2c(c3cc(Cl)ccc31)CN(CCCC(=O)c1ccc(F)cc1)CC2)c1ccncc1 (centres unmarked) [Compound No. 464, 4-(8-chloro-5-(2-hydroxy-2-(pyridin-4-yl)propyl)-3,4-dihydro-1H-pyrido[4,3-b]indol-2(5H)-yl)-1-(4-fluorophenyl)butan-1-one] | 66 | 93 | 
C/C(=C\n1c2c(c3cc(C)ccc31)CN(CCO)CC2)c1ccncc1 [Compound 332, (E)-2-(8-methyl-5-(2-(pyridin-4-yl)prop-1-enyl)-3,4-dihydro-1H-pyrido[4,3-b]indol-2(5H)-yl)ethanol] | 23 |  | 79
C=C(Cn1c2c(c3cc(C)ccc31)CN(C)CC2)c1cnccn1 [Compound No. 364, 2,8-dimethyl-5-(2-(pyrazin-2-yl)allyl)-2,3,4,5-tetrahydro-1H-pyrido[4,3-b]indole] | 95 | 27 | 
C/C(=C\n1c2c(c3cc(Cl)ccc31)CN(C)CC2)C1CCCCC1 [Compound 367, (E)-8-chloro-5-(2-cyclohexylprop-1-enyl)-2-methyl-2,3,4,5-tetrahydro-1H-pyrido[4,3-b]indole] | 64 | 48 | 
CNc1ccc2c(c1)c1c(n2/C=C(\C)c2ccncc2)CCN(C)C1 [compound 433, (E)-N,2-dimethyl-5-(2-(pyridin-4-yl)prop-1-enyl)-2,3,4,5-tetrahydro-1H-pyrido[4,3-b]indol-8-amine] | 13 | 61 | 
CC(C)=C(Cn1c2c(c3cc(C)ccc31)CN(C)CC2)c1ccncc1 [Compound No. 358, 2,8-dimethyl-5-(3-methyl-2-(pyridin-4-yl)but-2-enyl)-2,3,4,5-tetrahydro-1H-pyrido[4,3-b]indole] | 47 | 14 | 

Results, then the molecule that gave them:

inhibition at 1 µM (histamine receptor H1) [%] | inhibition at 1 µM [1, 2] [%] | inhibition at 1 µM [1, 3] [%] | Structure (SMILES)
93 | 79 |  | C/C(=C(/C)n1c2c(c3cc(C)ccc31)CN(C)CC2)c1ccc(F)cc1 [compound 421, (E)-5-(3-(4-fluorophenyl)but-2-en-2-yl)-2,8-dimethyl-2,3,4,5-tetrahydro-1H-pyrido[4,3-b]indole]
11 | 71 |  | CNC(=O)c1ccc(/C(C)=C/n2c3c(c4cc(C)ccc42)CN(C)CC3)cc1 [compound 435]
18 | 54 |  | Cc1ccc2c(c1)c1c(n2C=C(c2ccccc2)c2ccccc2)CCN(C)C1 [compound 409, 5-(2,2-diphenylvinyl)-2,8-dimethyl-2,3,4,5-tetrahydro-1H-pyrido[4,3-b]indole]
9 |  | 31 | C/C(=C\n1c2c(c3cc(C)ccc31)CN(C)CC2)c1cncnc1 [Compound 293, (E)-2,8-dimethyl-5-(2-(pyrimidin-5-yl)prop-1-enyl)-2,3,4,5-tetrahydro-1H-pyrido[4,3-b]indole]
33 |  | 72 | C/C(=C\n1c2c(c3cc(C)ccc31)CN(C)CC2)c1cnccn1 [Compound 287, (E)-2,8-dimethyl-5-(2-(pyrazin-2-yl)prop-1-enyl)-2,3,4,5-tetrahydro-1H-pyrido[4,3-b]indole]
72 | 25 |  | COc1ccc(/C(F)=C/n2c3c(c4cc(C)ccc42)CN(C)CC3)cn1 [compound 430, (Z)-5-(2-fluoro-2-(6-methoxypyridin-3-yl)vinyl)-2,8-dimethyl-2,3,4,5-tetrahydro-1H-pyrido[4,3-b]indole]
83 |  | 83 | C/C(=C\n1c2c(c3cc(C)ccc31)CN(C)CC2)c1cccs1 [Compound 294, (E)-2,8-dimethyl-5-(2-(thiophen-2-yl)prop-1-enyl)-2,3,4,5-tetrahydro-1H-pyrido[4,3-b]indole]
15 | 7 |  | C/C(=C\n1c2c(c3cc(Cl)ccc31)CN(C(=O)OCc1ccccc1)CC2)c1ccncc1 [compound 396, (E)-benzyl 8-chloro-5-(2-(pyridin-4-yl)prop-1-enyl)-3,4-dihydro-1H-pyrido[4,3-b]indole-2(5H)-carboxylate]
75 | 99 |  | C/C(=C\n1c2c(c3cc(Cl)ccc31)CN(C)CC2)c1ccnc(C)c1 [compound 394, (E)-8-chloro-2-methyl-5-(2-(2-methylpyridin-4-yl)prop-1-enyl)-2,3,4,5-tetrahydro-1H-pyrido[4,3-b]indole]
98 | 53 |  | CSc1cccc(/C(C)=C/n2c3c(c4cc(C)ccc42)CN(C)CC3)c1 [Compound No. 474, (E)-2,8-dimethyl-5-(2-(3-(methylthio)phenyl)prop-1-enyl)-2,3,4,5-tetrahydro-1H-pyrido[4,3-b]indole]
18 | 74 |  | Cc1ccc2c(c1)c1c(n2C#Cc2ccccc2)CCN(C)C1 [Compound No. 490, 2,8-dimethyl-5-(phenylethynyl)-2,3,4,5-tetrahydro-1H-pyrido[4,3-b]indole]

— patent US8906925B2, “Pyrido[4,3-B]indoles containing rigid moieties” (Medivation Technologies, Inc., priority 2008, dated 2014)
